The source made the active and inactive calls. No cut-off for these calls is given here.
What was measured:
[1] = Induction of cell damage in HMLE-shGFP cells assessed as degradation of internal structure at 5 uM irradiated at 420 nm for 5 mins measured after 2 to 3 hrs by confocal microscopic method; type: cell-based; conditions: human
[2] = tested on: HCT-116; test: Photocytotoxicity against human HCT116 cells assessed as growth inhibition irradiated at 350 nm at 4, 24, 48 hrs post compound addition for 5 mins measured after 72 hrs by MTT assay; type: functional, cell-based; conditions: HCT-116, light or radiation study
[3] = Dark toxicity against human SUM159 cells after 72 hrs by MTT assay; type: cell-based, SUM-159-PT
[4] = tested on: MCF7; test: Photocytotoxicity against human MCF7 cells assessed as growth inhibition irradiated at 420 nm at 4, 24, 48 hrs post compound addition for 5 mins measured after 72 hrs by MTT assay; type: functional, cell-based; conditions: MCF7, light or radiation study
[5] = Photocytotoxicity against HMLE-shEcad cells assessed as growth inhibition irradiated at 350 nm at 4, 24, 48 hrs post compound addition for 5 mins measured after 72 hrs by MTT assay; type: functional, cell-based; conditions: Homo sapiens, light or radiation study
[6] = Photocytotoxicity against HMLE-shEcad cells assessed as growth inhibition irradiated at 420 nm at 4, 24, 48 hrs post compound addition for 5 mins measured after 72 hrs by MTT assay; type: functional, cell-based; conditions: Homo sapiens, light or radiation study
[7] = Drug uptake in cytoplasm of HMLE-shEcad cells at 5 uM in absence of irradiation measured after 2 to 3 hrs by confocal microscopic method; type: ADME, subcellular; conditions: human
[8] = tested on: HMLE; test: Cell cycle arrest in HMLE-shEcad cells assessed as delay in S/G2 phase at 5 uM irradiated at 420 nm at 4 hrs post compound addition for 5 mins measured after 24 to 48 hrs by propidium iodide staining-based flow cytometric method; type: functional; conditions: Homo sapiens
[9] = Drug uptake in plasma membranes of HMLE-shGFP cells at 5 uM irradiated at 420 nm for 5 mins measured after 2 to 3 hrs by confocal microscopic method; type: ADME, cell membranes, Plasma membrane; conditions: human
[10] = tested on: NCI-H460; test: Photocytotoxicity against human H460 cells assessed as growth inhibition irradiated at 420 nm at 4, 24, 48 hrs post compound addition for 5 mins measured after 72 hrs by MTT assay; type: functional, cell-based; conditions: NCI-H460, light or radiation study
[11] = Drug uptake in nucleus of HMLE-shGFP cells at 5 uM irradiated at 420 nm for 5 mins measured after 2 to 3 hrs by confocal microscopic method; type: ADME, subcellular; conditions: human
[12] = Cell cycle arrest in HMLE-shGFP cells assessed as delay in G1 phase at 5 uM after 24 to 48 hrs in absence of irradiation by propidium iodide staining-based flow cytometric method; conditions: human
[13] = Drug uptake in nucleus of HMLE-shEcad cells at 5 uM in absence of irradiation measured after 2 to 3 hrs by confocal microscopic method; type: ADME, subcellular; conditions: human
[14] = Photocytotoxicity against HMLE-shGFP cells assessed as growth inhibition irradiated at 420 nm at 4, 24, 48 hrs post compound addition for 5 mins measured after 72 hrs by MTT assay; type: cell-based; conditions: Homo sapiens, light or radiation study
[15] = Dark toxicity against human MCF7 cells after 72 hrs by MTT assay; type: cell-based
[16] = tested on: NCI-H460; test: Photocytotoxicity against human H460 cells assessed as growth inhibition irradiated at 350 nm at 4, 24, 48 hrs post compound addition for 5 mins measured after 72 hrs by MTT assay; type: functional, cell-based; conditions: NCI-H460, light or radiation study
[17] = tested on: MCF7; test: Photocytotoxicity against human MCF7 cells assessed as growth inhibition irradiated at 350 nm at 4, 24, 48 hrs post compound addition for 5 mins measured after 72 hrs by MTT assay; type: functional, cell-based; conditions: MCF7, light or radiation study
[18] = tested on: HMLE; test: Cytotoxicity against HMLE-shEcad cells at 10 uM irradiated at 420 nm at 4 hrs post compound addition for 5 mins measured after 48 hrs by propidium iodide staining-based flow cytometric method; type: functional, cell-based; conditions: Homo sapiens
[19] = tested on: HCT-116; test: Photocytotoxicity against human HCT116 cells assessed as growth inhibition irradiated at 420 nm at 4, 24, 48 hrs post compound addition for 5 mins measured after 72 hrs by MTT assay; type: functional, cell-based; conditions: HCT-116, light or radiation study
[20] = Anticlonogenic activity against HMLE-shGFP cells at 1 uM irradiated at 350 nm at 4 hrs post compound addition for 5 mins measured after 24 hrs by crystal violet staining-based assay; type: cell-based; conditions: human
[21] = Cytotoxicity against HMLE-shGFP cells at 10 uM irradiated at 420 nm at 4 hrs post compound addition for 5 mins measured after 48 hrs by propidium iodide staining-based flow cytometric method; type: cell-based; conditions: human
[22] = Dark toxicity against human HCT116 cells after 72 hrs by MTT assay; type: cell-based, HCT-116
[23] = Cell cycle arrest in HMLE-shGFP cells assessed as delay in S/G2 phase at 5 uM irradiated at 420 nm at 4 hrs post compound addition for 5 mins measured after 24 to 48 hrs by propidium iodide staining-based flow cytometric method; conditions: human
[24] = Photocytotoxicity against HMLE-shGFP cells assessed as growth inhibition irradiated at 350 nm at 4, 24, 48 hrs post compound addition for 5 mins measured after 72 hrs by MTT assay; type: cell-based; conditions: Homo sapiens, light or radiation study
[25] = Dark toxicity against HMLE-shEcad cells after 72 hrs by MTT assay; type: cell-based; conditions: human
[26] = Induction of cell damage in HMLE-shGFP cells assessed as cell swelling at 5 uM irradiated at 420 nm for 5 mins measured after 2 to 3 hrs by confocal microscopic method; type: cell-based; conditions: human
[27] = Dark toxicity against HMLE-shGFP cells after 72 hrs by MTT assay; type: cell-based; conditions: human
[28] = Drug uptake in cytoplasm of HMLE-shGFP cells at 5 uM irradiated at 420 nm for 5 mins measured after 2 to 3 hrs by confocal microscopic method; type: ADME, subcellular; conditions: human
[29] = Drug uptake in intracellular membranes of HMLE-shGFP cells at 5 uM irradiated at 420 nm for 5 mins measured after 2 to 3 hrs by confocal microscopic method; type: ADME, cell membranes, Intracellular membrane; conditions: human
[30] = tested on: MCF7; test: Cell cycle arrest in human MCF7 cells in presence of irradiation; type: functional, cell-based
[31] = Dark toxicity against human H460 cells after 72 hrs by MTT assay; type: cell-based, NCI-H460
[32] = Induction of cell damage in HMLE-shGFP cells assessed as uncoupling of cytoskeleton from plasma membrane at 5 uM irradiated at 420 nm for 5 mins measured after 2 to 3 hrs by confocal microscopic method; type: cell-based; conditions: human
[33] = Cell cycle arrest in HMLE-shEcad cells at 1 to 5 uM after 24 to 48 hrs in absence of irradiation by propidium iodide staining-based flow cytometric method; conditions: human
[34] = tested on: HMLE; test: Anticlonogenic activity against HMLE-shEcad cells at 1 uM irradiated at 350 nm at 4 hrs post compound addition for 5 mins measured after 24 hrs by crystal violet staining-based assay; type: functional, cell-based; conditions: Homo sapiens
[35] = tested on: SUM-159-PT; test: Photocytotoxicity against human SUM159 cells assessed as growth inhibition irradiated at 420 nm at 4, 24, 48 hrs post compound addition for 5 mins measured after 72 hrs by MTT assay; type: functional, cell-based; conditions: light or radiation study
[36] = tested on: SUM-159-PT; test: Cell cycle arrest in human SUM159 cells in presence of irradiation; type: functional, cell-based
[37] = Decrease in reactive oxygen species generation in HMLE-shEcad cells at 1 uM in absence of irradiation measured after 2 hrs by H2DCF-DA dye-based FACS analysis; type: ADME, cell-based; conditions: human
[38] = Induction of reactive oxygen species generation in HMLE-shGFP cells at 1 to 10 uM irradiated at 420 nm for 5 mins measured after 2 hrs by H2DCF-DA dye-based FACS analysis relative to non-irradiated cells; type: cell-based; conditions: human
[39] = tested on: HMLE; test: Anticlonogenic activity against HMLE-shEcad cells at 0.5 to 1 uM irradiated at 350 nm at 4 hrs post compound addition for 5 mins for 5 mins measured after 24 hrs by crystal violet staining-based assay; type: functional, cell-based; conditions: Homo sapiens
[40] = Cell cycle arrest in HMLE-shEcad cells assessed as delay in G1/S phase at 1 to 10 uM after 24 to 48 hrs in absence of irradiation by propidium iodide staining-based flow cytometric method; conditions: human
[41] = Cell cycle arrest in HMLE-shGFP cells assessed as accumulation at G2/M phase at 1 to 10 uM irradiated at 420 nm at 4 hrs post compound addition for 5 mins measured after 24 to 48 hrs by propidium iodide staining-based flow cytometric method; conditions: human
[42] = tested on: HMLE; test: Cell cycle arrest in HMLE-shEcad cells assessed as accumulation at G2/M phase at 1 to 10 uM irradiated at 420 nm at 4 hrs post compound addition for 5 mins measured after 24 to 48 hrs by propidium iodide staining-based flow cytometric method; type: functional; conditions: Homo sapiens
[43] = Drug uptake in cytoplasm of HMLE-shEcad cells at 10 uM in absence of irradiation measured after 2 to 3 hrs by confocal microscopic method; type: ADME, subcellular; conditions: human
[44] = Drug uptake in nucleus of HMLE-shEcad cells at 10 uM in absence of irradiation measured after 2 to 3 hrs by confocal microscopic method; type: ADME, subcellular; conditions: human
[45] = Cell cycle arrest in HMLE-shGFP cells assessed as accumulation at S phase at 1 to 10 uM irradiated at 420 nm at 4 hrs post compound addition for 5 mins measured after 24 to 48 hrs by propidium iodide staining-based flow cytometric method; conditions: human
[46] = tested on: HMLE; test: Cell cycle arrest in HMLE-shEcad cells assessed as accumulation at S phase at 1 to 10 uM irradiated at 420 nm at 4 hrs post compound addition for 5 mins measured after 24 to 48 hrs by propidium iodide staining-based flow cytometric method; type: functional; conditions: Homo sapiens
[47] = tested on: SUM-159-PT; test: Induction of reactive oxygen species generation in human SUM159 cells at 1 to 10 uM irradiated at 420 nm for 5 mins measured after 2 hrs by H2DCF-DA dye-based FACS analysis; type: functional, cell-based
[48] = Induction of cell damage in HMLE-shGFP cells assessed as membrane blebbing at 5 uM irradiated at 420 nm for 5 mins measured after 2 to 3 hrs by confocal microscopic method; type: cell-based; conditions: human
[49] = tested on: MCF7; test: Induction of reactive oxygen species generation in human MCF7 cells at 1 to 10 uM irradiated at 420 nm for 5 mins measured after 2 hrs by H2DCF-DA dye-based FACS analysis; type: functional, cell-based

| Compound | Activity [1] | IC50 [2] [µM] | IC50 at 72 h [3] [µM] | IC50 [4] [µM] | IC50 [5] [µM] | IC50 [6] [µM] | Drug uptake [9] | IC50 [10] [µM] | Drug uptake [11] | IC50 [14] [µM] | IC50 at 72 h [15] [µM] | IC50 [16] [µM] | IC50 [17] [µM] | Activity [18] | IC50 [19] [µM] | Activity [21] | IC50 at 72 h [22] [µM] | IC50 [24] [µM] | IC50 at 72 h [25] [µM] | Activity [26] | also measured |
| --- | --- | --- | --- | --- | --- | --- | --- | --- | --- | --- | --- | --- | --- | --- | --- | --- | --- | --- | --- | --- | --- |
| Oc1cc2cc3ccccc3cc2cc1C(O)(c1ccccc1)c1ccccc1 | Toxic | 2 | 4 | 2 | 2 | 2 | Active | 2 | Not Active | 2 | 20 | 3 | 4 | Active | 2 | Toxic | 21 | 1 | 2 | Toxic | Drug uptake [7]: Active; Activity [8]: Active; Activity [12]: Toxic; Drug uptake [13]: Not Active; Activity [20]: Toxic; Activity [23]: Toxic; IC50 at 72 h [27]: 6 µM; Drug uptake [28]: Active; Drug uptake [29]: Active; Activity [30]: inactive; IC50 at 72 h [31]: 19 µM; Activity [32]: Toxic; Activity [33]: Non-Toxic; Activity [34]: Active; IC50 [35]: 1 µM; Activity [36]: inactive |
| Oc1ccc2cc3ccccc3cc2c1 | Toxic | 9 | 18 | 1 | 2 | 1 | Active | 2 | Not Active | 2 | 28 | 12 | 2 | Active | 2 | Toxic | 27 | 2 | 25 | Toxic | Activity [37]: Toxic; fold change (FC) [38]: 2; Activity [39]: Active; Activity [40]: Toxic; Activity [41]: Toxic; Activity [42]: Active; Drug uptake [43]: Active; Drug uptake [44]: Not Active; Activity [45]: Toxic; Activity [46]: Active; Activity [47]: Active; IC50 at 72 h [27]: 27 µM; Activity [48]: Toxic; Activity [49]: Active; Drug uptake [28]: Active; Drug uptake [29]: Active; Activity [30]: inactive; IC50 at 72 h [31]: 23 µM; IC50 [35]: 2 µM; Activity [36]: inactive |

— ChEMBL document CHEMBL4138121, “Selective photocytotoxicity of anthrols on cancer stem-like cells: The effect of quinone methides or reactive oxygen species” (Eur J Med Chem, 2017)
